The values that follow come from patent US20110130405A1, “SUBSTITUTED QUINAZOLINES AS BLOOD PLATELET LOWERING AGENTS” (Shire LLC, priority 2008, published 2011).

Each structure is given as a SMILES string. Bounds are passed on as bounds.

Data set [1] in a line: pharmacokinetics in humans. As to conditions: after anagrelide treatment. It is filed as in vivo, human. From the text:
The metabolism of anagrelide generally proceeds extremely rapidly, resulting in a less than ideal pharmacokinetic profile of the drug. […] This, combined with the side-effects profile, can lead to poor patient compliance. Furthermore, anagrelide undergoes a large first pass effect (>50%) leading to considerable intersubject variation in achieved exposures and, therefore, potentially variable drug response. Also, exposure to the pharmacologically active metabolite varies dramatically between patients since its formation is dependent on CYP1A, an enzyme whose expression is highly dependent on exposure to inducing agents such as cigarette smoke. Overall, this may result in the need for careful dose titration in patients being treated with anagrelide.

Data set [2] has as its system human megakaryocytopoiesis. The conditions noted are these: cited from earlier work.
For data set [3] the following is noted: human; cited from earlier work.
In data set [4] the test system is human phosphodiesterase III (PDE III). Put plainly: PDE III inhibition. It is filed as biochemical. As to conditions: more potent than anagrelide. From the text:
In early volunteer trials, the most frequently reported adverse effects AEs other than headache were palpitations, postural dizziness and nausea. During patient studies, the most frequently reported drug-related AEs were headache, palpitations, oedema/fluid retention, nausea/vomiting, diarrhea, dizziness and abdominal pain. These effects are all likely to arise from the secondary, cardiovascular pharmacology associated with anagrelide resulting from its inhibitory effects on human phosphodiesterase III (PDE III). […] Inhibition of myocardial PDE III leads to positive inotropy (increasing of the force of contractions of the heart), increased chronotropy (increase in heart rate), and peripheral vasodilatation. Such cardiovascular manifestations of this inhibition are typically seen with the classical positive inotropes, milrinone and enoximone, and exploited in the short-term acute treatment of congestive heart failure. However, in the treatment of a so-called silent disease (i.e., asymptomatic) such as ET, the cardiovascular side-effects of palpitations and tachycardia associated with anagrelide limit its utility and a significant proportion of patients—reportedly between 25 and 50%—fail to tolerate the drug during long term treatment.

In data set [5] the target is human phosphodiesterase III (PDE III). As to conditions: cited from earlier work.
Data set [6] has as its system erythroid or myelomonocytic differentiation. As to conditions: stimulated by erythropoietin or granulocyte-macrophage colony-stimulating factor; cited from earlier work.

Take `O=C1NC2=Nc3ccc(Cl)c(Cl)c3CN2C1O` (stereo not drawn) [3-hydroxyanagrelide]: the “in vivo exposure relative to parent drug” value in data set [1] is listed as 2-3 fold. Further, the “potency of inhibition of megakaryocytopoiesis relative to parent drug” value in data set [2] (compared with anagrelide) is given as “no more potent than the parent drug”. In addition, in data set [3], the typical half-life is 2.5 h. The “potency as PDE III inhibitor relative to anagrelide” value in data set [4] is “over 40 fold”.
A word on the IC50: it is the midpoint of a concentration-inhibition curve. In the case of `O=C1CN2Cc3c(ccc(Cl)c3Cl)N=C2N1` [Anagrelide, 6,7-dichloro-1,5-dihydroimidazo[2,1-b]-quinazolin-2(3H)-one], the IC50 in data set [2] (in vitro, dose-dependent, read-out: estimated IC50, inhibition of TPO-induced megakaryocytopoiesis) was around 26 nM; in data set [5], around 29 nM. For the same molecule, the first pass effect in data set [3] is above 50%. In data set [6], the “effect on erythroid or myelomonocytic differentiation” value is on record as “does not affect”.
Consider `Cc1[nH]c(=O)c(C#N)cc1-c1ccncc1` [milrinone], for which the IC50 in data set [5] was 170 to 350 nM.
